Patent US9340577B2, “HLA binding motifs and peptides and their uses” (priority 1992, dated 2016)
No end group written: not given here.

Assays:
Test in all cases: biochemical
Assay type in all cases: binding
A*6801 = A*6801 (Homo sapiens, UniProt P04439, A269V/D185E/E176V/E277Q/E87N/F33Y/G231S/I121M/I166T/I218V/L180W/L300P/L318F/N151K/P208A/P217A/Q86R/R169H/T345S)
A*3002 = A*3002 (Homo sapiens, UniProt P04439, D101N/D140H/D185E/E176R/F33S/G80R/H175R/K168Q/Q94H/R138E/R41S/V100E)
A*3301 = A*3301 (Homo sapiens, UniProt P04439, A270S/D185E/E176V/E277Q/E87N/F33T/G231S/H175R/I121M/I218V/I322F/K168Q/K210R/L300P/L318F/M331R/P217A/Q86R/Q94H/R138Q/T323A/T345S/T97I/V358M/Y195H)
A31 (A*3101) = A31 (A*3101) (Homo sapiens, UniProt P04439, A270S/D185E/E176V/E277Q/F33T/G231S/G80R/H175R/I121M/I218V/I322F/K168Q/L300P/L318F/M331R/P217A/Q94H/R138Q/T323A/T345S/T97I/V358M)
A*2902 = A*2902 (Homo sapiens, UniProt P04439, A270S/D101N/D185E/E176V/E277Q/E87Q/F33T/G231S/H175R/I121M/I218V/I322F/K168Q/L300P/L318F/M331R/P208A/P217A/Q86L/T323A/T345S/V100A/V358M)
HLA-A1 (A*0101) = HLA-A1 (A*0101) (Homo sapiens, UniProt P04439, A114D/A174V/A182V/D101N/D185E/E176A/E190D/L180R/Q94H/R68K/S129P/T187R/V100A/V91M/W191G)
HLA-A11 (A*1101) = HLA-A11 (A*1101) (Homo sapiens, UniProt P04439, A114D/D185E/E176A/F33Y/L180Q/S129P/T187R)
A*2601 = A*2601 (Homo sapiens, UniProt P04439, A114D/A173T/A270S/D101N/D185E/E277Q/E87N/F33Y/G231S/I121R/I218V/K168Q/L180W/L300P/L318F/P208A/P217A/Q86R/Q94H/R138Q/S129P/T187R/T323A/T345S/V100A/V358M)

A*3002, sequence (P04439 whole entry, looked up, the tested form may be a part, stated change not applied): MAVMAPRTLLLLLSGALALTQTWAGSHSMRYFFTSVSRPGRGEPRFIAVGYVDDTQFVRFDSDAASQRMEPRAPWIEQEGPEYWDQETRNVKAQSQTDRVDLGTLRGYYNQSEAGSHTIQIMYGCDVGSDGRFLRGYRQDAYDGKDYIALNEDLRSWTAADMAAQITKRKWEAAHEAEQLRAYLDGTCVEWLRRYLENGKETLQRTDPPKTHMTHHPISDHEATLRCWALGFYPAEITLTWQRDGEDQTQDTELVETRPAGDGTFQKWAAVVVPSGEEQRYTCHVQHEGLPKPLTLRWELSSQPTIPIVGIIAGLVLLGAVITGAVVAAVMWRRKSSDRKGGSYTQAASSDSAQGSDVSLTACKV

| Compound | IC50 (A*6801) [nM] | IC50 (A*3002) [nM] | IC50 (A*3301) [nM] | IC50 (A31 (A*3101)) [nM] | IC50 (A*2902) [nM] | IC50 (HLA-A1 (A*0101)) [nM] | IC50 (HLA-A11 (A*1101)) [nM] | IC50 (A*2601) [nM] |
| --- | --- | --- | --- | --- | --- | --- | --- | --- |
| CC(C)C[C@H](NC(=O)[C@H](CO)NC(=O)[C@@H](N)CCCNC(=N)N)C(=O)N[C@@H](Cc1ccc(O)cc1)C(=O)N[C@@H](CC(N)=O)C(=O)N[C@H](C(=O)N[C@H](C(=O)N[C@@H](C)C(=O)N[C@H](C(=O)N[C@@H](CC(C)C)C(=O)N[C@@H](Cc1ccc(O)cc1)C(=O)O)[C@@H](C)O)C(C)C)[C@@H](C)O [Peptide 1595.06] | > 20000 | 1.2 | > 20000 | 9270 | 750 | 221 | 148 |  |
| CC[C@H](C)[C@H](NC(=O)[C@H](CO)NC(=O)[C@@H](NC(=O)[C@@H]1CCCN1C(=O)[C@H](CO)NC(=O)[C@H](Cc1ccc(O)cc1)NC(=O)[C@H](CCSC)NC(=O)[C@@H](N)CCCNC(=N)N)C(C)C)C(=O)N[C@@H](CC(C)C)C(=O)O [Peptide 1605.07] |  | 44 |  |  | > 20000 | > 20000 |  | > 20000 |
| CQDKILEHY [Peptide 1580.23] |  | 2600 |  |  | > 20000 | 55 |  | > 20000 |
| DLADQLIHLY [Peptide 9015.0184] |  |  |  |  | 9790 | 958 |  | 6.2 |
| DLDDQLIHLY [Peptide 9018.0022] |  | 2.7 |  |  | 3.7 | 4.9 |  | 38 |
| DTADQLIHLY [Peptide 9018.0021] |  | 13 |  |  | 30 | 3.6 |  | 3.2 |
| EISNYTDIIY [Peptide 9015.0158] |  | 2900 |  |  | > 20000 | 6020 |  | 59 |
| EISNYTDTIY [Peptide 9015.0157] |  | 7050 |  |  | > 20000 | 2340 |  | 32 |
| ETKKGKAGY [Peptide 9015.0024] |  | 2100 |  |  | > 20000 | > 20000 |  | 15 |
| ETKLGKAGY [Peptide 9015.0023] |  | 3900 |  |  | > 20000 | > 20000 |  | 21 |
| ETPGIRYQY [Peptide 9015.0017] |  | 2300 |  |  | > 20000 | 9210 |  | 25 |
| ETWETWWMDY [Peptide 9015.0168] |  | 601 |  |  | 5120 | 91 |  | 2.9 |
| FSITNWLWY [Peptide 9015.0008] |  | 870 |  |  | 37 | 74 |  |  |
| GLADQLIHLY [Peptide 9015.0185] |  | 9.2 |  |  |  | 5520 |  | 426 |
| GTADQLIHLY [Peptide 9018.0023] |  | 2 |  |  |  | 26 |  | 68 |
| GTEELRSLY [Peptide 9015.0010] |  | 51 |  |  | 4830 |  |  | 666 |
| HMARELHPEY [Peptide 9015.0176] |  | 33 |  |  |  | 618 |  | 1570 |
| HTAREKHPEY [Peptide 9018.0006] |  |  |  |  | 4460 |  |  | 15 |
| HTARELHPEY [Peptide 9018.0004] |  | 9.2 |  |  |  | 8 |  | 12 |
| ISERILSTY [Peptide 1522.03] |  |  |  |  | > 20000 | 31 |  | 4100 |
| ISWTYIDDY [Peptide 86.0135] |  | 9.4 |  |  | 2490 |  |  | > 20000 |
| ITKIGPENPY [Peptide 9015.0162] |  |  |  |  | > 20000 |  |  | 985 |
| IVDDSEIAY [Peptide 1580.04] |  | 2030 |  |  |  |  |  | > 20000 |
| IVNRVRQGY [Peptide 1595.07] |  | 6.3 |  |  | 2030 | 19800 |  |  |
| KSDIVTLTY [Peptide 1593.07] |  |  |  |  | 3170 | 62 |  | > 20000 |
| LADQLIHMHY [Peptide 9015.0186] |  | 817 |  |  | 3070 | 8.1 |  |  |
| LADQLIHMYY [Peptide 9015.0187] |  | 769 |  |  |  | 2.5 |  | 1780 |
| LFDQLIHLY [Peptide 9018.0027] |  | 10 |  |  | 45 | 83 |  |  |

| Compound | IC50 (A*6801) [nM] | IC50 (A*3002) [nM] | IC50 (A*3301) [nM] | IC50 (A31 (A*3101)) [nM] | IC50 (A*2902) [nM] | IC50 (HLA-A1 (A*0101)) [nM] | IC50 (HLA-A11 (A*1101)) [nM] | IC50 (A*2601) [nM] |
| --- | --- | --- | --- | --- | --- | --- | --- | --- |
| LFDQLIHMHY [Peptide 9018.0033] |  | 47 |  |  | 280 | 4070 |  |  |
| LFDQLIHMYY [Peptide 9018.0030] |  | 65 |  |  | 12 |  |  | 2410 |
| LSEMVQWAY [Peptide 1580.10] |  |  |  |  | 633 | 6.9 |  | > 20000 |
| LSQMVQWAY [Peptide 1580.03] |  | 1.8 |  |  | 124 | 25 |  |  |
| LTDDSDIAY [Peptide 1580.11] |  | 5440 |  |  | 4770 |  |  | 3920 |
| LTDQLIHMYY [Peptide 9018.0029] |  | 197 |  |  |  | 6.3 |  | 3210 |
| MSDSQWIKY [Peptide 1593.05] |  | 434 |  |  | 839 | 10 |  |  |
| MWKFDSRLAL [Peptide 1605.17] |  |  |  |  | > 20000 | > 20000 |  | > 20000 |
| NTDKSLVKY [Peptide 9018.0008] |  | 3010 |  |  | 5430 | 7.3 |  |  |
| NYLVKHHMY [Peptide 9018.0037] |  | 12 |  |  | 63 | 305 |  |  |
| QTKGLGISY [Peptide 9015.0031] |  | 715 |  |  | > 20000 | > 20000 |  |  |
| RQEILDLWVY [Peptide 9015.0174] |  | 76 |  |  |  | 7250 |  | 8720 |
| SFDPIPIHY [Peptide 9015.0002] |  |  |  |  | 27 | 315 |  | 2650 |
| SSNLQGKLY [Peptide 86.0139] |  | 62 |  |  | 15900 | 3030 |  |  |
| SSNTKANILY [Peptide 1580.08] |  | 33 |  |  |  | 290 |  | 579 |
| STEWRQRRY [Peptide 9018.0017] |  | 19 |  |  |  | 7.1 |  | 371 |
| SYEWRLRRY [Peptide 9018.0036] |  | 58 |  |  |  | 3700 |  | 3220 |
| VMDDSEIAY [Peptide 1580.07] |  | 2550 |  |  | 95 |  |  | > 20000 |
| VSIEWRKRRY [Peptide 9015.0183] |  | 231 |  |  | > 20000 | > 20000 |  |  |
| VSRRANGWFY [Peptide 9015.0179] |  | 5.2 |  |  | 5580 |  |  | > 20000 |
| VTDDSEIAY [Peptide 1593.13] |  | 10100 |  |  |  | 22 |  | > 20000 |
| VTRRANGWFY [Peptide 9018.0011] |  | 0.71 |  |  | 905 | 25 |  |  |
| VTTIVYIEY [Peptide 9018.0041] |  | 92 |  |  |  | 3.6 |  | 448 |
| VWTIVYIEY [Peptide 9015.0089] |  |  |  |  |  | 6980 |  | > 20000 |
| WFDITNWLWY [Peptide 9015.0161] |  | 1660 |  |  | 150 | 986 |  |  |
| YTPGPGTRY [Peptide 9015.0027] |  | 9150 |  |  | 1280 |  |  | 11 |
| YTPGPGVRY [Peptide 9015.0026] |  | 7640 |  |  | 1350 |  |  | 27 |
